One data set relates to HEPG2. The data set can be described thus: Viability assay (CellTiter-Glo), HEPG2. It is filed as cell-based, human. The note with it: for Cell viability (%) HEPG2 120 μM: CellTiter-Glo; for toxicity at 120 μM (in words): HepG2, 120 μM. (In general: In ATP-based viability assays light output follows the ATP content of the culture.)
Another data set concerns Mouse microglia. Briefly: NO production (Griess assay), LPS/IFNγ-activated mouse microglia. It is filed as cell-based. The settings on record: for inhibition at 10 µM / inhibition at 50 µM: Mus musculus, Microglia, 24 h. In general terms: The Griess reaction detects nitrite, a stable product of nitric oxide.
In data set [1] the test system is BZR (benzodiazepine site of GABAAR). Briefly: GABAAR/BZR binding, rat brain homogenate with 3H-flunitrazepam. The settings on record: for BZR %: Percent inhibition at 10,000 nM. In a few lines:
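Rat brain homogenate incubated with 3H-flunitrazepam near its Kd, typically 90 min at room temperature in the dark; nonspecific binding defined with 10 μM reference compound. Filtration on PEI-soaked mats, scintillation counting; compounds screened at 10,000 nM, those above 50% displacement taken to concentration–response for Ki by nonlinear regression (n=6).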

The next data set relates to Swiss Webster mice. The data set can be described thus: Rotarod test. The settings on record: for sensorimotor deficits on the rotarod: p.o. at 4-fold the effective dose in the formalin test.
Where [2] appears, read: rat brain homogenate, 3H-flunitrazepam.

We go through 18 molecules from patent US20240279232A1, “USE OF SUBSTITUTED 5-(4-METHYL-6-PHENYL-4H-BENZO[F]IMIDAZO[1,5-A][1,4] DIAZEPIN-3-YL)-1,2,4-O[…] THE TREATMENT OF INFLAMMATORY CONDITIONS” (priority 2021, published 2024).

Structures are written as SMILES.

In the case of `C[C@H]1N=C(c2ccccc2F)c2cc(Br)ccc2-n2cnc(-c3cnco3)c21` [GL-III-36], the “Cell viability (%) HEPG2 120 μM” value in the data set on HEPG2 turned out to be 100 ± 9%. In the data set with Mouse microglia, the inhibition (in general, how much of the control response was suppressed) at 10 µM was found to be 8 ± 5% and the inhibition at 50 µM is 41 ± 7%. Further, in data set [1] (setting [2]), the BZR % is 86% and the Ki (in general, a measure of affinity in units of concentration, obtained from inhibition or displacement) turned out to be 319 nM.
Regarding `C[C@H]1N=C(c2ccccc2F)c2cc(Cl)ccc2-n2cnc(C(=O)O)c21` [GL-III-54], the “Cell viability (%) HEPG2 120 μM” value with HEPG2 stood at 93 ± 4%. This molecule also gave an inhibition at 10 µM in the data set with Mouse microglia of 31 ± 9%. In addition, in data set [1] (setting [2]), the BZR % is 100% and the inhibitory constant (Ki) amounted to 42 nM.
The like results for `C[C@H]1N=C(c2ccccc2F)c2cc(Br)ccc2-n2cnc(C(=O)N(C)C)c21` [GL-III-69] were, in that order, 88 ± 5%, 37 ± 6%, 100% and 446 nM.
With `C#Cc1ccc2c(c1)C(c1ccccc1F)=N[C@H](C)c1c(-c3cnco3)ncn1-2` [GL-III-73], in the data set with HEPG2, the “Cell viability (%) HEPG2 120 μM” value is 100 ± 9%. For the same molecule, the inhibition at 10 µM in the data set on Mouse microglia was determined as 40 ± 3%. Further, in data set [1] (setting [2]), the BZR % worked out at 65% and the Ki is 602 nM.
As to `C[C@H]1N=C(c2ccccc2F)c2cc(C3CC3)ccc2-n2cnc(C(=O)N(C)C)c21` [GL-III-70], in the data set on HEPG2, the “Cell viability (%) HEPG2 120 μM” value came to 100 ± 5%. In the data set on Mouse microglia, this molecule displayed an inhibition at 10 µM of 32 ± 4%. In data set [1] (setting [2]), the BZR % turned out to be 100% and the Ki amounted to 3400 nM.
`CCOC(=O)c1ncn2c1[C@@H](C)N=C(c1ccccn1)c1cc(Br)ccc1-2` [GL-II-06]: the “Cell viability (%) HEPG2 120 μM” value with HEPG2 was determined as 89 ± 5%. For the same molecule, at 10 µM the inhibition in the data set with Mouse microglia was 14 ± 3%. Further, in data set [1] (setting [2]), the BZR % was determined as 81% and the inhibitory constant (Ki) is 556 nM.
With `Cc1noc(-c2ncn3c2[C@@H](C)N=C(c2ccccc2F)c2cc(Br)ccc2-3)n1` [GL-III-60, (R)-5-(8-Bromo-6-(2-fluorophenyl)-4-methyl-4H-benzo[f]imidazo[1,5-a][1,4]diazepin-3-yl)-3-methyl-1,2,4-oxadiazole], the “Cell viability (%) HEPG2 120 μM” value in the data set with HEPG2 amounted to 100 ± 11%. In the data set with Mouse microglia, this molecule returned an inhibition at 10 µM of 55 ± 8% and an inhibition at 50 µM of 68 ± 8%. Moreover, in data set [1] (setting [2]), the BZR % was 100% and the Ki is 784 nM.
Consider `CCc1noc(-c2ncn3c2[C@@H](C)N=C(c2ccccc2F)c2cc(C4CC4)ccc2-3)n1` [GL-IV-03, (R)-5-(8-Cyclopropyl-6-(2-fluorophenyl)-4-methyl-4H-benzo[f]imidazo[1,5-a][1,4]diazepin-3-yl)-3-ethyl-1,2,4-oxadiazole], for which, in the data set on HEPG2, the “Cell viability (%) HEPG2 120 μM” value was 39 ± 5% and the “toxicity at 120 μM (in words)” value is given as “to a lesser degree”. The same molecule returned an inhibition at 10 µM with Mouse microglia of 90%. Further, the “ability of mice to balance on a rotating rod for three minutes” value in the data set with Swiss Webster mice (intraperitoneal, 10 and 40 mg/kg) is recorded as “did not influence the ability of mice to balance”. Also, in the data set with Swiss Webster mice, the “sensorimotor deficits on the rotarod” value was “did not cause any sensorimotor deficits”. In addition, the BZR % in data set [1] (setting [2]) came out at 65%.
In the case of `C#Cc1ccc2c(c1)C(c1ccccc1F)=N[C@H](C)c1c(-c3nc(C)no3)ncn1-2` [MP-IV-004], the “Cell viability (%) HEPG2 120 μM” value in the data set with HEPG2 was 100 ± 4%. Further, in the data set on Mouse microglia, the inhibition at 10 µM stood at 34 ± 5% and the inhibition at 50 µM worked out at 60 ± 6%. In data set [1] (setting [2]), the BZR % was 63% and the Ki came out at 1080 nM.
As for `C#Cc1ccc2c(c1)C(c1ccccc1F)=N[C@H](C)c1c(C(=O)NC(C)C)ncn1-2` [GL-III-66], in the data set on HEPG2, the “Cell viability (%) HEPG2 120 μM” value is given as 86 ± 8%. In addition, in the data set with Mouse microglia, the inhibition at 10 µM worked out at 13 ± 2%. For the same molecule, in data set [1] (setting [2]), the BZR % worked out at 88% and the inhibition constant (Ki) worked out at 271 nM.
The like results for `CCOC(=O)c1ncn2c1[C@@H](C)N=C(c1ccccc1F)c1cc(C3CC3)ccc1-2` [GL-III-42] were, in that order, 100 ± 8%, 55 ± 12%, 62% and 726 nM.
With `Cc1noc(-c2ncn3c2[C@@H](C)N=C(c2ccccc2F)c2cc(C4CC4)ccc2-3)n1` [GL-III-63, (R)-5-(8-Cyclopropyl-6-(2-fluorophenyl)-4-methyl-4H-benzo[f]imidazo[1,5-a][1,4]diazepin-3-yl)-3-methyl-1,2,4-oxadiazole], in the data set with HEPG2, the “Cell viability (%) HEPG2 120 μM” value came out at 16 ± 6% and the “toxicity at 120 μM (in words)” value is listed as “toxic”. In the data set on Mouse microglia, this molecule gave an inhibition at 10 µM of 25 ± 4% and an inhibition at 50 µM of 89 ± 12%. For the same molecule, the BZR % in data set [1] (setting [2]) came out at 28%.
As for `CCNC(=O)c1ncn2c1[C@@H](C)N=C(c1ccccc1F)c1cc(C3CC3)ccc1-2` [GL-III-68], in the data set on HEPG2, the “Cell viability (%) HEPG2 120 μM” value is 83 ± 2%. For the same molecule, in the data set on Mouse microglia, testing at 10 µM gave an inhibition of 24 ± 5%. Moreover, in data set [1] (setting [2]), the BZR % worked out at 100% and the Ki turned out to be 452 nM.
As to `C[C@@H]1N=C(c2ccccc2F)c2cc(Br)ccc2-n2cnc(-c3cnco3)c21` [GL-III-76], the “Cell viability (%) HEPG2 120 μM” value in the data set with HEPG2 came out at 90 ± 6%. Also, in the data set with Mouse microglia, testing at 10 µM gave an inhibition of 34 ± 1%. In data set [1] (setting [2]), the BZR % was 100% and the inhibition constant (Ki) turned out to be 120 nM.
As for `C#Cc1ccc2c(c1)C(c1ccccc1F)=N[C@@H](C)c1c(-c3cnco3)ncn1-2` [GL-III-78], the “Cell viability (%) HEPG2 120 μM” value with HEPG2 is 100 ± 15%. Also, in the data set on Mouse microglia, 10 µM produced 39 ± 5% inhibition. In addition, in data set [1] (setting [2]), the BZR % worked out at 101% and the Ki came to 26 nM.
In the case of `C#Cc1ccc2c(c1)C(c1ccccc1F)=N[C@H](C)c1c(C(=O)NC)ncn1-2` [MP-III-022], the “Cell viability (%) HEPG2 120 μM” value with HEPG2 turned out to be 94 ± 7%. In the data set with Mouse microglia, this molecule had an inhibition at 10 µM of 36 ± 6% and an inhibition at 50 µM of 60 ± 12%. Moreover, in data set [1] (setting [2]), the BZR % worked out at 95% and the Ki worked out at 83 nM.
Regarding `C#Cc1ccc2c(c1)C(c1ccccc1F)=N[C@H](C)c1c(-c3nc(C(C)C)no3)ncn1-2` [MP-IV-010, (R)-5-(8-ethynyl-6-(2-fluorophenyl)-4-methyl-4H-benzo[f]imidazo[1,5-a][1,4]diazepin-3-yl)-3-isopropyl-1,2,4-oxadiazole], in the data set on HEPG2, the “Cell viability (%) HEPG2 120 μM” value was found to be 45 ± 7% and the “toxicity at 120 μM (in words)” value is given as “to a lesser degree”. For the same molecule, in the data set with Mouse microglia, at 10 µM the inhibition was 66 ± 13% and the inhibition at 50 µM worked out at 96 ± 13%. For the same molecule, the “NO production of activated microglia (in words)” value with Mouse microglia (dexamethasone 100 nM, GABA 1 μM, MP-IV-010 50 μM, GL-II-33 in the library screen) was “significant reduction”. For the same molecule, in the data set with Swiss Webster mice, the “sensorimotor deficits on the rotarod” value is “did not cause any sensorimotor deficits”. Further, the “Percent Competition BZP Rat Brain Site” value in data set [1] (PDSP primary screening) worked out at 64%. For the same molecule, in data set [1] (setting [2]), the BZR % is 64% and the Ki was 814 nM. In addition, the half-inhibitory concentration (IC50) (in general, the concentration that inhibits the measured activity by half) in data set [1] (rat brain homogenate, 3H-flunitrazepam, read-out: affinity for the benzodiazepine site of GABAARs (IC50)) was 2500 nM.
Consider `C[C@H]1N=C(c2ccccn2)c2cc(Br)ccc2-n2cnc(C(=O)O)c21` [GL-II-51], for which the “Cell viability (%) HEPG2 120 μM” value in the data set with HEPG2 is given as 100 ± 16%. Further, the inhibition at 10 µM in the data set on Mouse microglia came to 9 ± 4%. In data set [1] (setting [2]), the BZR % turned out to be 84% and the Ki was found to be 181 nM.
